Reference: patent publication US5650415A, “Quinoline compounds” (Sugen, Inc., priority 1995, dated 1997)

Assays:
[1] = target: T1, IGF-1R (Homo sapiens, UniProt P08069); assay: Cellular IGF-1 Receptor ELISA; assay type: cell-based; conditions: 3T3/IGF-1R cells
T1 construct: expressed in transfected cells; host or cells: 3T3/IGF-1R cells (mouse 3T3 host)
Procedure: Cellular IGF-1 Receptor ELISA (Version I)
(1). The cell line used in this assay is 3T3/IGF-1R, a cell line which overexpresses IGF-1 Receptor.
(2). 3T3/IGF-1R is grown in an incubator with 5% CO2 at 37° C. The growth media is DMEM+10% FBS (heat inactivated)+2mM L-Glutamine.
(3). For ELISA plate coating, the anti-IGF-1R antibody named 17-69 is used. Antibodies are purified by the Enzymology Lab, SUGEN, Inc.
All the following steps are conducted at room temperature unless it is specifically indicated. All ELISA plate washings are performed by rinsing the plate with tap water three times, followed by one TBST rinse. Pat plate dry with paper towels.
(1). The cells, grown in tissue culture dish (10 cm, Corning 25020-100) to 80-90% confluence, are harvested with Trypsin-EDTA (0.25%, 0.5 ml/D-100, GIBCO).
(2). Resuspend the cells in fresh DMEM+10% FBS+2mM L-Glutamine, and transfer to 96-well tissue culture plate (Corning, 25806-96) at 20,000 cells/well (100 ul/well). Incubate for 1 day then replace medium to serum-free medium (90/ul) and incubate in 5% CO2 and 37° C. overnight.
(1). Coat the ELISA plate (Corning 25805-96) with Anti-IGF-1R Antibody at 0.5 ug/well in 100 ul PBS at least 2 hours.
(2). Remove the coating solution, and replace with 100 ul Blocking Buffer, and shake for 30 minutes. Remove the blocking buffer and wash the plate just before adding lysate.
(1). The drugs are tested in serum-free condition.
(2). Dilute drug stock (in 100% DMSO) 1:10 with DMEM in 96-well poly-propylene plate, and transfer 10 ul/well of this solution to the cells to achieve final drug dilution 1:100, and final DMSO concentration of 1.0%. Incubate the cells in 5% CO2 at 37° C. for 2 hours.
(3). Prepare fresh cell lysis buffer (HNTG HNTG 2 ml EDTA 0.1 ml Na3VO4 0.1 ml Na4P2O7 0.1 ml H20 7.3 ml HNTG* 10 ml.
(4). After drug incubation for two hours, transfer 10 ul/well of 200 nM IGF-1 Ligand in PBS to the cells (Final Conc=20 nM), and incubate at 5% CO2 at 37° C. for 10 minutes.
(5). Remove media and add 100ul/well HNTG* and shake for 10 minutes. Look at cells under microscope to see if they are adequately lysed.
(6). Use a 12-channel pipette to scrape the cells from the plate, and homogenize the lysate by repeat aspiration and dispense. Transfer all the lysate to the antibody coated ELISA plate [V.2.(2)], and shake for 1 hour.
(7). Remove the lysate, wash the plate, transfer anti-pTyr (1:3,000 with TBST) 100 ul/well, and shake for 30 minutes.
(7). Remove anti-pTyr, wash the plate, transfer detection antibody (1:3,000 with TBST) 100 ul/well, and shake for 30 minutes.
(8). Remove detection antibody, wash the plate, and transfer fresh ABTS/H2O2 (1.2 ul H2O2 to 10 ml ABTS) 100 ul/well to the plate to start color development.
(9). Measure OD (410 nm) in Dynatec MR5000, which is connected to Ingres.

[2] = tested on: HER2; assay: HER2 whole cell kinase ELISA (second HER2 column of Table 1); assay type: cell-based; conditions: cell line not given
Text: The following examples illustrates the ability of the exemplary compounds to inhibit receptor tyrosine kinases, such as HER2 and/or EGFR. The following target cells were used for cellular kinase assays: NIH3T3 clone C7 (Honegger et al., supra) engineered to over-express human EGF receptor; NIH3T3 cells engineered to over-express a chimeric receptor containing the EGFR extracellular domain and the HER2 intracellular kinase domain; the human mammary carcinoma line BT474 (ATCC HTB2) expressing HER2; and the human glioblastoma line U1242 that expresses PDGFR-beta. Growth assays were carried out using human mammary epithelial SKBR3 (ATCC HTB30) cells (SKBR3 cells over-express HER2), SKOV3 (AT(D(D HTB77) human ovarian cancer cell line (SKOV3 cells also over-express HER2), A431 cells (A431 cells over-express EGFR) MCF7 human breast carcinoma cells, MCF7 cells overexpressing the HER2 kinase (MCF7-HER2), NIH3T3 cells, and NIH3T3 cells overexpressing the HER2 kinase (3T3-HER2. EGFR-HER2 Chimeric Recetor HER2 kinase activity (EGFR-3T3) in whole cells was measured as described below: HER2-ELISA HER2-BT474 assays measuring whole cell HER2 activity was carried out as described below: 1. The cell line used in this assay is BT-474 (ATCC HBT20), a human breast tumor cell line which expresses high levels of HER2 kinase. 2. BT-474 is grown in an incubator with 5% CO2 at 37° C. The growth media is RPMI+10% FBS+GMS-G (Gibco supplement)+Glutamine. 3. A monoclonal anti-HER2 antibody is used in ELISA. (a) Grow BT474 cells in tissue culture dishes (10 cm, Corning 25020-100) to 80-90% confluence and collect using Trypsin-EDTA (0.25%, GIBCO). (b) Resuspend the cells in fresh medium and transfer to 96-well tissue culture plates (Corning, 25806-96) at about 25,000-50,000 cells/well (100 μl/well). Incubate the cells in 5% CO2 at 37° C. overnight. (a) Coat the ELISA plate (Corning 25805-96) with anti HER2 antibody at 0.5 μg/well in 150 μl PBS overnight at 4.sunburst. C., and seal with parafilm. The antibody coated plates can be used up to 2 weeks, when stored at 4° C. (b) On the day of use, remove the coating solution, replace with 200 μl of Blocking Buffer, shake the plate, and then remove the blocking buffer and wash the plate just before adding lysate. (a) TBST the drugs in serum-free condition. Before adding drugs, the old media (b) Dilute drug stock (in 100% DMSO) 1:10 with RPMI, and transfer 10 μl/well of this solution to the cells to achieve a final drug DMSO concentration at 1%. Incubate the cells in 5% CO2 at 37° C. (d) After drug preincubation for two hours remove all the solution from the plate, transfer HNTG* 100 μl/well to the cells, and shake for 10 minutes. (e) Use a 12-channel pipette to scrape the cells from the plate, and homogenize the lysate by repeat aspiration and dispensing. Transfer all the lysate to the ELISA plate and shake for 1 hour. (f) Remove the lysate, wash the plate, add anti-pTyr (1:3,000 with TBST) 100 μl/well, and shake for 30 minutes. (g) Remove anti-pTyr, wash the plate, add goat anti-rabbit IgG conjugated antibody (1:5,000 with TBST) 100 μl/well, and shake for 30 minutes. (h) Remove anti-rabbit IgG antibody, wash the plate, and add fresh ABTS/H2 O2 (1.2 μl H2 O2 to 10 ml ABTS) 100 l/we1l to the plate to start color development, which usually takes 20 minutes. (i) Measure OD 410 nm, Dynatec MR5000.

T1 sequence (P08069 31-1367): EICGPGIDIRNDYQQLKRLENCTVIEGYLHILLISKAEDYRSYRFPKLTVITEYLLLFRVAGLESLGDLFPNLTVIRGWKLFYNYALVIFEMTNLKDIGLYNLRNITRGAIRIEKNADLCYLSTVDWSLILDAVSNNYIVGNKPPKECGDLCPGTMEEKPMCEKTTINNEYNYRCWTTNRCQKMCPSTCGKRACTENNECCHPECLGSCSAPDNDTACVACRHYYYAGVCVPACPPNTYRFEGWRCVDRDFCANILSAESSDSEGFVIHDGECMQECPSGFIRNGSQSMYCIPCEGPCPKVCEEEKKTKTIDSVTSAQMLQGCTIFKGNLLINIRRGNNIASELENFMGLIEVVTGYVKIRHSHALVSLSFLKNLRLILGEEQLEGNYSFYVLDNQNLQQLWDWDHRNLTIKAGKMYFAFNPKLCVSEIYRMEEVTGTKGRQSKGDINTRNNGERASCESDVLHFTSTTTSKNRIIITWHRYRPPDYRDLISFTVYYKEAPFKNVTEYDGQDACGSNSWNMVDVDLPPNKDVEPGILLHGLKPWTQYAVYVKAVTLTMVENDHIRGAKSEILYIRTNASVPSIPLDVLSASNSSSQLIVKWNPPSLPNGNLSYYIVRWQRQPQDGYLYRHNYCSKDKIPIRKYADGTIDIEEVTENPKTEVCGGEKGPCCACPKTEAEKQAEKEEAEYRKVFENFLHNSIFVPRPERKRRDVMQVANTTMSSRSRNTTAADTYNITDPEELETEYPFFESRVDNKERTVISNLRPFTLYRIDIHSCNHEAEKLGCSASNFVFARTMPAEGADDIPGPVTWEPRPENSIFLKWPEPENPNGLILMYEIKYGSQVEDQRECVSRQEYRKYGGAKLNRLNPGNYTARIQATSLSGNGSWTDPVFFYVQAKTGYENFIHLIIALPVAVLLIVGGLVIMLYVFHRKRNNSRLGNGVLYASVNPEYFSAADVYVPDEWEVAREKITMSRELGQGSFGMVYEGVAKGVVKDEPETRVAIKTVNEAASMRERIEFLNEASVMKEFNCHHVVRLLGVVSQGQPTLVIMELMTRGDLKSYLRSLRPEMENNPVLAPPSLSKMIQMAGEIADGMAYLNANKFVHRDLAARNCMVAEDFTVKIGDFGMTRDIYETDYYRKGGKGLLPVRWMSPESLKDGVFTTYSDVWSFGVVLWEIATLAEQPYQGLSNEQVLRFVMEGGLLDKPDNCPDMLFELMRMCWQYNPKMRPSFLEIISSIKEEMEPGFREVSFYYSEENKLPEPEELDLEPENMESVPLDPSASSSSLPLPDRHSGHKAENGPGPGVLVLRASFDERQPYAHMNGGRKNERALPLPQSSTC

Row | SMILES | IC50 [1] [µM] | IC50 [2] [µM]
1 | CCOC(=O)c1cnc2ccc(C(F)(F)F)cc2c1Nc1ccc(Cl)cc1 [Compound A729, 4-(4-Chlorophenylamino)-3-ethoxycarbonyl-6-trifluoromethylquinoline] | > 100 | > 100
2 | CCOC(=O)c1cnc2ccc(C(F)(F)F)cc2c1Nc1ccc(C#N)cc1 [Compound A725, 4-(4-Cyanophenylamino)-3-ethoxycarbonyl-6-trifluoromethylquinoline] | > 100 | > 100
3 | CCOC(=O)c1cnc2ccc(C(F)(F)F)cc2c1Nc1ccc(Br)cc1 [Compound A727, 4-(4-Bromophenylamino)-3-ethoxycarbonyl-6-trifluoromethylquinoline] | > 100 | > 10
4 | CCOC(=O)c1cnc2ccc(C(F)(F)F)cc2c1NCc1ccc(C(F)(F)F)cc1 [Compound A719, 3-Ethoxycarbonyl-4-(4-trifluoromethylbenzylamino)-6-trifluoromethylquinoline] | > 100 | > 100
5 | CCOC(=O)c1cnc2ccc(C(F)(F)F)cc2c1Nc1cccc(C(F)(F)F)c1 [Compound A721, 3-Ethoxycarbonyl-4-(3-trifluoromethylphenylamino)-6-trifluoromethylquinoline] | > 100 | > 100
6 | CCOC(=O)c1cnc2ccc(C(F)(F)F)cc2c1NCc1ccccc1C(F)(F)F [Compound A717, 3-Ethoxycarbonyl-4-(2-trifluoromethylbenzylamino)-6-trifluoromethylquinoline] | > 100 | > 100
7 | CCOC(=O)c1cnc2c(F)ccc(F)c2c1Sc1cccc(C(F)(F)F)c1 [Compound A713, 3-Ethoxycarbonyl-5,8-difluoro-4-(3-trifluoromethylphenylmercapto)quinoline] | > 100 | 36
8 | CCOC(=O)c1cnc2ccc(C(F)(F)F)cc2c1NCc1cccc(C(F)(F)F)c1 [Compound A718, 3-Ethoxycarbonyl-4-(3-trifluoromethylbenzylamino)-6-trifluoromethylquinoline] | > 100 | > 50
9 | CCOC(=O)c1cnc2ccc(C(F)(F)F)cc2c1Nc1ccc(C(F)(F)F)cc1 [Compound A722, 3-Ethoxycarbonyl-4-(4-trifluoromethylphenylamino)-6-trifluoromethylquinoline] | > 100 | > 100
10 | CCOC(=O)c1cnc2ccc(C(F)(F)F)cc2c1Nc1cccc(Cl)c1 [Compound A728, 4-(3-Chlorophenylamino)-3-ethoxycarbonyl-6-trifluoromethylquinoline] | > 100 | > 75
11 | CCOC(=O)c1cnc2cc(Cl)c(F)cc2c1Sc1ccc(Cl)cc1 [Compound A731, 7-Chloro-4-(4-chlorophenylmercapto)-6-fluoro-3-ethoxycarbonylquinoline] | > 50 | –
12 | CCOC(=O)c1cnc2ccc(C(F)(F)F)cc2c1Nc1cccc(Br)c1 [Compound A716, 4-(3-Bromophenylamino)-3-ethoxycarbonyl-6-trifluoromethylquinoline] | > 100 | > 100
13 | CCOC(=O)c1cnc2ccc(C(F)(F)F)cc2c1Nc1ccccc1C#N [Compound A723, 4-(2-Cyanophenylamino)-3-ethoxycarbonyl-6-trifluoromethylquinoline] | > 100 | > 10
14 | CCOC(=O)c1cnc2c(F)ccc(F)c2c1Sc1ccc(Cl)cc1 [Compound A732, 4-(4-Chlorophenylmercapto)-5,8-difluoro-3-ethoxycarbonylquinoline] | > 100 | –
15 | CCOC(=O)c1cnc2c(F)cc(F)cc2c1Sc1ccc(Cl)cc1 [Compound A730, 4-(4-Chlorophenylmercapto)-6,8-difluoro-3-ethoxycarbonylquinoline] | > 50 | –
16 | CCOC(=O)c1cnc2ccc(C(F)(F)F)cc2c1Nc1ccc(OC)c(OC)c1 [Compound A726, 3-Ethoxycarbonyl-4-(3,4-dimethoxyphenylamino)-6-trifluoromethylquinoline] | > 100 | > 100
17 | CCOC(=O)c1cnc2ccc(C(F)(F)F)cc2c1Nc1ccccc1C(F)(F)F [Compound A720, 3-Ethoxycarbonyl-4-(2-trifluoromethylphenylamino)-6-trifluoromethylquinoline] | > 100 | > 100
